Values after ≈ are worked out from the molar mass of the structure shown.

In one experiment the test system is S. aureus RN4220. The experiment in a line: MIC, agar plate dilution method, S. aureus RN4220. The settings on record: for MIC: Staphylococcus aureus, RN4220, S. aureus RN4220, Sensitive bacterium, read-out: minimal inhibitory concentration (MIC); for minimal inhibitory concentration (MIC): S. aureus RN4220, Sensitive bacterium. The class given is cell-based, Staphylococcus aureus. Summed up:
(§1)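 MIC values, expressed in μg/mL, come from an agar plate dilution assay run as the Japan Society of Chemotherapy describes.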

The test system of the next experiment is S. aureus RN4220/pMS520. Nature of the experiment: MIC, agar plate dilution method, S. aureus RN4220/pMS520. In kind it is cell-based, Staphylococcus aureus. The settings on record: for MIC: Staphylococcus aureus, MRSA, read-out: minimal inhibitory concentration (MIC), S. aureus RN4220/pMS520, MRSA; for minimal inhibitory concentration (MIC): S. aureus RN4220/pMS520, MRSA. Summed up:
as §1

The subject of the next experiment is S. aureus MF490. The experiment in a line: MIC, agar plate dilution method, S. aureus MF490. The class given is cell-based, Staphylococcus aureus. The settings on record: for MIC: Staphylococcus aureus, MRSA, read-out: minimal inhibitory concentration (MIC); for minimal inhibitory concentration (MIC): S. aureus MF490, MRSA. A digest of the protocol:
as §1

The test system of the next experiment is E. faecium ATCC19434. The experiment in a line: MIC, agar plate dilution method, E. faecium ATCC19434. The class given is cell-based, Enterococcus faecium. Particulars: for MIC: Enterococcus faecium, ATCC19434, E. faecium ATCC19434, read-out: minimal inhibitory concentration (MIC); for minimal inhibitory concentration (MIC): E. faecium ATCC19434. A digest of the protocol: as §1

The next experiment concerns E. coli JM109/pMW218. Nature of the experiment: MIC, agar plate dilution method, E. coli JM109/pMW218. The class given is cell-based, Escherichia coli. The settings on record: for MIC: Escherichia coli, JM109/PMW218, E. coli JM109/pMW218, Sensitive bacterium, read-out: minimal inhibitory concentration (MIC); for minimal inhibitory concentration (MIC): E. coli JM109/pMW218, Sensitive bacterium. A digest of the protocol:
as §1

The test system of experiment [1] is K. pneumoniae ATCC BAA-1705. The experiment in a line: MIC, agar plate dilution method, K. pneumoniae ATCC BAA-1705. In kind it is cell-based, Klebsiella pneumoniae. Particulars: for MIC: Klebsiella pneumoniae, ATCCBAA1705, K. pneumoniae ATCC BAA-1705, KPC-producing strain, read-out: minimal inhibitory concentration (MIC); for minimal inhibitory concentration (MIC): K. pneumoniae ATCC BAA-1705, KPC-producing strain. A digest of the protocol:
as §1

Experiment [2] deals with K. pneumoniae ATCC BAA-2146. The experiment in a line: MIC, agar plate dilution method, K. pneumoniae ATCC BAA-2146. The class given is cell-based, Klebsiella pneumoniae. Particulars: for MIC: Klebsiella pneumoniae, ATCCBAA2146, K. pneumoniae ATCC BAA-2146, NDM-producing strain, read-out: minimal inhibitory concentration (MIC); for minimal inhibitory concentration (MIC): K. pneumoniae ATCC BAA-2146, NDM-producing strain. A digest of the protocol: as §1

For experiment [3], the system named is A. baumannii ATCC BAA-1710. The experiment in a line: MIC, agar plate dilution method, A. baumannii ATCC BAA-1710. The class given is cell-based, Acinetobacter baumannii. Particulars: for MIC: Acinetobacter baumannii, ATCCBAA1710, A. baumannii ATCC BAA-1710, MDRA, read-out: minimal inhibitory concentration (MIC); for minimal inhibitory concentration (MIC): A. baumannii ATCC BAA-1710, MDRA. Summed up: as §1

In the next experiment the test system is S. marcescens TH-0447. The experiment in a line: MIC, agar plate dilution method, S. marcescens TH-0447. Particulars: for MIC: Serratia marcescens, TH0447, S. marcescens TH-0447, AMK-resistant, read-out: minimal inhibitory concentration (MIC); for minimal inhibitory concentration (MIC): S. marcescens TH-0447, AMK-resistant. The class given is cell-based, Serratia marcescens. A digest of the protocol: as §1

The subject of another experiment is S. marcescens GN6944. Nature of the experiment: MIC, agar plate dilution method, S. marcescens GN6944. In kind it is cell-based, Serratia marcescens. The settings on record: S. marcescens GN6944, GM-resistant; for MIC: Serratia marcescens, read-out: minimal inhibitory concentration (MIC). Summed up: as §1
In the next experiment the test system is P. aeruginosa PAO1. Nature of the experiment: MIC, agar plate dilution method, P. aeruginosa PAO1. In kind it is cell-based, Pseudomonas aeruginosa. The settings on record: for MIC: Pseudomonas aeruginosa, PAO1, P. aeruginosa PAO1, Sensitive bacterium, read-out: minimal inhibitory concentration (MIC); for minimal inhibitory concentration (MIC): P. aeruginosa PAO1, Sensitive bacterium. A digest of the protocol: as §1

The next experiment relates to P. aeruginosa PAO1/GN315. The experiment in a line: MIC, agar plate dilution method, P. aeruginosa PAO1/GN315. In kind it is cell-based, Pseudomonas aeruginosa. Particulars: for MIC: Pseudomonas aeruginosa, read-out: minimal inhibitory concentration (MIC), P. aeruginosa PAO1/GN315, AMK-resistant; for minimal inhibitory concentration (MIC): P. aeruginosa PAO1/GN315, AMK-resistant. Summed up: as §1

The next experiment concerns P. aeruginosa MSC17707. Nature of the experiment: MIC, agar plate dilution method, P. aeruginosa MSC17707. The class given is cell-based, Pseudomonas aeruginosa. Particulars: for MIC: Pseudomonas aeruginosa, MSC17707, P. aeruginosa MSC17707, AMK-resistant, read-out: minimal inhibitory concentration (MIC); for minimal inhibitory concentration (MIC): P. aeruginosa MSC17707, AMK-resistant. A digest of the protocol: as §1

The subject of a further experiment is P. aeruginosa MSC01035. Nature of the experiment: MIC, agar plate dilution method, P. aeruginosa MSC01035. In kind it is cell-based, Pseudomonas aeruginosa. The settings on record: P. aeruginosa MSC01035, ABK-resistant; for MIC: Pseudomonas aeruginosa, read-out: minimal inhibitory concentration (MIC). A digest of the protocol: as §1

Consider `CNC1C(O[C@H]2OC(CO)[C@@H](NC(=O)CN)[C@H](O)C2O)O[C@H]2C[C@H](N)[C@@H](O[C@@H]3C(N)C[C@@H](N)C(O)[C@H]3N)OC2C1O` (stereo partly drawn) [Compound W2-b, 5-amino-5-deoxy-5-epi-4″-N-glycylapramycin], for which the MIC in the experiment with S. aureus RN4220 came to 4 µg/mL (≈ 6.72 µM); with S. aureus RN4220/pMS520, 2 µg/mL (≈ 3.36 µM); in the experiment on S. aureus MF490, 16 µg/mL (≈ 26.9 µM); in the experiment with E. faecium ATCC19434 it was 32 µg/mL (≈ 53.7 µM); in the experiment with E. coli JM109/pMW218 it was 1 µg/mL (≈ 1.68 µM); in [1], 2 µg/mL (≈ 3.36 µM). The MIC in experiment [2] amounted to 2 µg/mL (≈ 3.36 µM); in experiment [3], 8 µg/mL (≈ 13.4 µM); in the experiment on S. marcescens TH-0447 it was 16 µg/mL (≈ 26.9 µM); in the experiment with S. marcescens GN6944 it was 8 µg/mL (≈ 13.4 µM); in the experiment on P. aeruginosa PAO1, 2 µg/mL (≈ 3.36 µM); in the experiment with P. aeruginosa PAO1/GN315, 4 µg/mL (≈ 6.72 µM). Also, the MIC in the experiment with P. aeruginosa MSC17707 and with P. aeruginosa MSC01035 was 4 µg/mL (≈ 6.72 µM) in each case.
Take `CNC1C(OC2OC(CO)C(NC(=N)N)CC2O)OC2CC(N)C(OC3C(N)CC(N)C(O)C3O)OC2C1O` (stereo not drawn) [Compound X4-a, 4″-deamino-3″-deoxy-5-epi-4″-guanidinoapramycin]: the “minimal inhibitory concentration (MIC)” value with S. aureus RN4220 is 1 µg/mL (≈ 1.77 µM); in the experiment on S. aureus RN4220/pMS520 it was 1 µg/mL (≈ 1.77 µM); in the experiment with S. aureus MF490, 4 µg/mL (≈ 7.07 µM); in the experiment on E. faecium ATCC19434, 8 µg/mL (≈ 14.1 µM); with E. coli JM109/pMW218, 0.5 µg/mL (≈ 0.884 µM); in [1], 1 µg/mL (≈ 1.77 µM). In addition, the “minimal inhibitory concentration (MIC)” value stood at 1 µg/mL (≈ 1.77 µM) in [2]; 4 µg/mL (≈ 7.07 µM) in experiment [3]; 4 µg/mL (≈ 7.07 µM) in the experiment with S. marcescens TH-0447; 4 µg/mL (≈ 7.07 µM) in the experiment with S. marcescens GN6944; 4 µg/mL (≈ 7.07 µM) in the experiment with P. aeruginosa PAO1; 4 µg/mL (≈ 7.07 µM) in the experiment on P. aeruginosa PAO1/GN315. For the same molecule, the “minimal inhibitory concentration (MIC)” value in the experiment on P. aeruginosa MSC17707 and with P. aeruginosa MSC01035 was 8 µg/mL (≈ 14.1 µM) in each case.
In the case of `CNC1C(O[C@H]2OC(CO)[C@@H](NC(=N)N)CC2O)O[C@H]2CC(N)[C@@H](O[C@@H]3C(N)C[C@@H](N)C(O)[C@H]3F)OC2C1O` (stereo partly drawn) [Compound X4-b, 4″-deamino-5,3″-dideoxy-5-epi-5-fluoro-4″-guanidinoapramycin], the MIC is 1 µg/mL (≈ 1.76 µM) with S. aureus RN4220; 1 µg/mL (≈ 1.76 µM) in the experiment with S. aureus RN4220/pMS520; 4 µg/mL (≈ 7.05 µM) in the experiment on S. aureus MF490; 8 µg/mL (≈ 14.1 µM) with E. faecium ATCC19434; 1 µg/mL (≈ 1.76 µM) in the experiment with E. coli JM109/pMW218; 1 µg/mL (≈ 1.76 µM) in experiment [1]. For the same molecule, the MIC in experiment [2] was found to be 1 µg/mL (≈ 1.76 µM); in experiment [3] it was 16 µg/mL (≈ 28.2 µM); in the experiment on S. marcescens TH-0447, 4 µg/mL (≈ 7.05 µM); with S. marcescens GN6944, 4 µg/mL (≈ 7.05 µM); in the experiment with P. aeruginosa PAO1, 4 µg/mL (≈ 7.05 µM); with P. aeruginosa PAO1/GN315 it was 8 µg/mL (≈ 14.1 µM). Further, the MIC in the experiment on P. aeruginosa MSC17707 stood at 8 µg/mL (≈ 14.1 µM); in the experiment on P. aeruginosa MSC01035, 16 µg/mL (≈ 28.2 µM).
Regarding `CNC1C(OC2CC(O)C(N)C(CO)O2)OC2CC(N)C(OC3C(N)CC(N)C(O)C3O)OC2C1O` (stereo not shown) [Compound Y3, 2″-deoxy-5,3″-diepiapramycin], the “minimal inhibitory concentration (MIC)” value is 2 µg/mL (≈ 3.82 µM) in the experiment on S. aureus RN4220; 2 µg/mL (≈ 3.82 µM) in the experiment with S. aureus RN4220/pMS520; 4 µg/mL (≈ 7.64 µM) with S. aureus MF490; 8 µg/mL (≈ 15.3 µM) in the experiment with E. faecium ATCC19434; 1 µg/mL (≈ 1.91 µM) in the experiment on E. coli JM109/pMW218; 2 µg/mL (≈ 3.82 µM) in experiment [1]. Moreover, the “minimal inhibitory concentration (MIC)” value was determined as 2 µg/mL (≈ 3.82 µM) in experiment [2]; 8 µg/mL (≈ 15.3 µM) in [3]; 8 µg/mL (≈ 15.3 µM) in the experiment with S. marcescens TH-0447; 4 µg/mL (≈ 7.64 µM) with S. marcescens GN6944; 4 µg/mL (≈ 7.64 µM) with P. aeruginosa PAO1; 8 µg/mL (≈ 15.3 µM) in the experiment on P. aeruginosa PAO1/GN315. Also, the “minimal inhibitory concentration (MIC)” value with P. aeruginosa MSC17707 came out at 8 µg/mL (≈ 15.3 µM); in the experiment with P. aeruginosa MSC01035, 16 µg/mL (≈ 30.6 µM).
As for gentamicin [GM, reference compound], the “minimal inhibitory concentration (MIC)” value is 0.5 µg/mL with S. aureus RN4220; 0.5 µg/mL in the experiment with S. aureus RN4220/pMS520; greater than 64 µg/mL in the experiment with S. aureus MF490; 8 µg/mL with E. faecium ATCC19434; 0.25 µg/mL in the experiment on E. coli JM109/pMW218; 2 µg/mL in experiment [1]. Moreover, the “minimal inhibitory concentration (MIC)” value in experiment [2] is greater than 64 µg/mL; in experiment [3], greater than 64 µg/mL; in the experiment on S. marcescens TH-0447, 32 µg/mL; in the experiment on S. marcescens GN6944 it was 64 µg/mL; with P. aeruginosa PAO1, 2 µg/mL; with P. aeruginosa PAO1/GN315, 8 µg/mL. Further, the “minimal inhibitory concentration (MIC)” value is 8 µg/mL with P. aeruginosa MSC17707 and greater than 64 µg/mL in the experiment on P. aeruginosa MSC01035.

Values taken from patent US11135234B2, “Effective aminoglycoside antibiotic for multidrug-resistant bacteria” (MICROBIAL CHEMISTRY RESEARCH FOUNDATION, priority 2015, dated 2021).
